Experiment [1] addresses MAP kinase-interacting serine/threonine-protein kinase 2 (Homo sapiens) (UniProt Q9HBH9). Description: Inhibition of tracer 236 binding to full length human GST-tagged MKNK2 expressed in baculovirus expression system at 0.1 uM measured after 60 mins by Lanthascreen assay relative to control. In general terms: Time-resolved FRET reads energy transfer from a long-lived donor to a nearby acceptor.

Experiment [2] concerns the target Muscle, skeletal receptor tyrosine-protein kinase (Homo sapiens) (UniProt O15146). Kind of experiment: Inhibition of recombinant human GST-tagged MUSK (519 to 869 residues) expressed in baculovirus expression system at 0.1 uM using tyrosine-4 peptide as substrate incubated for 60 mins by Z'-LYTE assay relative to control.
Experiment [3] has as its target Epidermal growth factor receptor (Homo sapiens) (UniProt P00533). Kind of experiment: Inhibition of recombinant human GST-tagged EGFR (668 to 1210 residues) expressed in baculovirus expression system at 0.1 uM using tyrosine-4 peptide as substrate incubated for 60 mins by Z'-LYTE assay relative to control.
In experiment [4] the target is Testis-specific serine/threonine-protein kinase 1 (Homo sapiens) (UniProt Q9BXA7). Description: Inhibition of recombinant full length human His-tagged TSSK1 expressed in baculovirus expression system at 0.1 uM using serine/threonine-4 peptide as substrate incubated for 60 mins by Z'-LYTE assay relative to control.
Experiment [5] addresses Inhibitor of nuclear factor kappa-B kinase subunit epsilon (Homo sapiens) (UniProt Q14164). Kind of experiment: Inhibition of recombinant full length human GST-tagged IKKepsilon expressed in baculovirus expression system at 0.1 uM using serine/threonine-11 peptide as substrate incubated for 60 mins by Z'-LYTE assay relative to control.
In experiment [6] the target is Tyrosine-protein kinase Fes/Fps (Homo sapiens) (UniProt P07332). Kind of experiment: Inhibition of recombinant full length human His-tagged FES (FPS) expressed in baculovirus expression system at 0.1 uM using tyrosine-1 peptide as substrate incubated for 60 mins by Z'-LYTE assay relative to control.
Experiment [7] deals with Protein kinase C eta type (Homo sapiens) (UniProt P24723). Description: Inhibition of recombinant full length human His-tagged PKCeta expressed in baculovirus expression system at 0.1 uM using serine/threonine-7 peptide as substrate incubated for 60 mins by Z'-LYTE assay relative to control.
Experiment [8] has as its target Serine/threonine-protein kinase SIK2 (Homo sapiens) (UniProt Q9H0K1). Description: Inhibition of recombinant full length human GST-tagged SIK2 expressed in baculovirus expression system at 0.1 uM using serine/threonine-25 peptide as substrate incubated for 60 mins by Z'-LYTE assay relative to control.
Experiment [9] has as its target Tyrosine-protein kinase Yes (Homo sapiens) (UniProt P07947). Kind of experiment: Inhibition of recombinant full length human GST-tagged YES expressed in baculovirus expression system at 0.1 uM using tyrosine-2 peptide as substrate incubated for 60 mins by Z'-LYTE assay relative to control.
Experiment [10] deals with Calcium/calmodulin-dependent protein kinase kinase 2 (Homo sapiens) (UniProt Q96RR4). Description: Inhibition of tracer 236 binding to recombinant full length human GST-tagged CAMKK2 expressed in baculovirus expression system at 0.1 uM measured after 60 mins by Lanthascreen assay relative to control.
Experiment [11] concerns the target Receptor tyrosine-protein kinase erbB-2 (Homo sapiens) (UniProt P04626). Kind of experiment: Inhibition of recombinant human His-tagged ERBB2 catalytic domain (676 to 1255 residues) expressed in baculovirus expression system at 0.1 uM using tyrosine-6 peptide as substrate incubated for 60 mins by Z'-LYTE assay relative to control.
In experiment [12] the target is Leukocyte tyrosine kinase receptor (Homo sapiens) (UniProt P29376). Description: Inhibition of recombinant human GST-tagged LTK (450 to 864 residues) expressed in baculovirus expression system at 0.1 uM using tyrosine-6 peptide as substrate incubated for 60 mins by Z'-LYTE assay relative to control.
Experiment [13] has as its target SRSF protein kinase 3 (Homo sapiens) (UniProt Q9UPE1). Description: Inhibition of recombinant full length human GST-tagged MSSK1 expressed in baculovirus expression system at 0.1 uM using serine/threonine-18 peptide as substrate incubated for 60 mins by Z'-LYTE assay relative to control.
Experiment [14] concerns the target STE20-like serine/threonine-protein kinase (Homo sapiens) (UniProt Q9H2G2). Kind of experiment: Inhibition of tracer 236 binding to recombinant full length human GST-tagged SLK expressed in baculovirus expression system at 0.1 uM measured after 60 mins by Lanthascreen assay relative to control.
The target of experiment [15] is Protein kinase C zeta type (Homo sapiens) (UniProt Q05513). Kind of experiment: Inhibition of recombinant full length human PKCzeta expressed in baculovirus expression system at 0.1 uM using serine/threonine-7 peptide as substrate incubated for 60 mins by Z'-LYTE assay relative to control.
In experiment [16] the target is Interleukin-1 receptor-associated kinase 4 (Homo sapiens) (UniProt Q9NWZ3). Description: Inhibition of recombinant full length human His-tagged IRAK4 expressed in baculovirus expression system at 0.1 uM using serine/threonine-7 peptide as substrate incubated for 60 mins by Z'-LYTE assay relative to control.
Experiment [17] addresses BDNF/NT-3 growth factors receptor (Homo sapiens) (UniProt Q16620). Description: Inhibition of recombinant human His-tagged TRKB catalytic domain (526 to 838 residues) expressed in baculovirus expression system at 0.1 uM using tyrosine-1 peptide as substrate incubated for 60 mins by Z'-LYTE assay relative to control.
The target in experiment [18] is Cyclin-dependent kinase 4/cyclin D1 (Homo sapiens) (UniProt P11802+P24385). Description: Inhibition of recombinant full length human GST-tagged CDK4/Cyclin D1 expressed in baculovirus expression system at 0.1 uM using Rb peptide as substrate incubated for 60 mins by Adapta assay relative to control.
The subject of experiment [19] is Epidermal growth factor receptor (Homo sapiens), P00533 [L858R,T790M]. Description: Inhibition of recombinant human GST-tagged EGFR T790M/L858R mutant (668 to 1210: T790M/L858R residues)expressed in baculovirus expression system at 0.1 uM using tyrosine-4 peptide as substrate incubated for 60 mins by Z'-LYTE assay relative to control.
Experiment [20] deals with Serine/threonine-protein kinase mTOR (Homo sapiens) (UniProt P42345). Description: Inhibition of recombinant human GST-tagged mTOR catalytic domain (1360 to 2549 residues) expressed in baculovirus expression system at 0.1 uM using serine/threonine-11 peptide as substrate incubated for 60 mins by Z'-LYTE assay relative to control.
Experiment [21] deals with Ephrin type-A receptor 7 (Homo sapiens) (UniProt Q15375). Description: Inhibition of tracer 236 binding to recombinant human His-tagged EPHA7 (579 to 998 residues) expressed in baculovirus expression system at 0.1 uM measured after 60 mins by Lanthascreen assay relative to control.
Experiment [22] deals with Tyrosine-protein kinase FRK (Homo sapiens) (UniProt P42685). Description: Inhibition of recombinant full length human GST-tagged FRK expressed in baculovirus expression system at 0.1 uM using tyrosine-1 peptide as substrate incubated for 60 mins by Z'-LYTE assay relative to control.
Experiment [23] has as its target Cyclin-C/Cyclin-dependent kinase 19 (Homo sapiens) (UniProt Q9BWU1+P24863). Kind of experiment: Inhibition of tracer 236 binding to recombinant human GST/His-tagged CDK11/Cyclin C catalytic domain (CDK11: 1 to 502, Cyclin C: 1 to 283) expressed in insect cells expression system at 0.1 uM measured after 60 mins by Lanthascreen assay relative to control.

Chain of SRSF protein kinase 3 (Homo sapiens) (Q9UPE1 whole entry): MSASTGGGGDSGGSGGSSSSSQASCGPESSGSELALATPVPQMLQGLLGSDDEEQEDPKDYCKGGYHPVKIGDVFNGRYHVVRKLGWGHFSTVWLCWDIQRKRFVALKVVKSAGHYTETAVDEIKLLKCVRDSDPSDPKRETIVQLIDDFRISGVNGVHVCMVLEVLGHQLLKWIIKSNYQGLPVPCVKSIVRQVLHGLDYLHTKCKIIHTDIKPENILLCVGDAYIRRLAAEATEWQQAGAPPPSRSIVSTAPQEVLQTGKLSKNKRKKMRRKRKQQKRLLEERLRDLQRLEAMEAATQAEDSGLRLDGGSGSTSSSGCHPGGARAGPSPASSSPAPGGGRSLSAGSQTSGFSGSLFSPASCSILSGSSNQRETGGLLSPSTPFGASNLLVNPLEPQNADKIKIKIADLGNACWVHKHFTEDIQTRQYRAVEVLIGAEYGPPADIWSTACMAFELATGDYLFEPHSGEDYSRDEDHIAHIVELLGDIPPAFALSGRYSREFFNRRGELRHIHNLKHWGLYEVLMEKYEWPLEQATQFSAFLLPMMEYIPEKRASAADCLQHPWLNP
Chain of Inhibitor of nuclear factor kappa-B kinase subunit epsilon (Homo sapiens) (Q14164 whole entry): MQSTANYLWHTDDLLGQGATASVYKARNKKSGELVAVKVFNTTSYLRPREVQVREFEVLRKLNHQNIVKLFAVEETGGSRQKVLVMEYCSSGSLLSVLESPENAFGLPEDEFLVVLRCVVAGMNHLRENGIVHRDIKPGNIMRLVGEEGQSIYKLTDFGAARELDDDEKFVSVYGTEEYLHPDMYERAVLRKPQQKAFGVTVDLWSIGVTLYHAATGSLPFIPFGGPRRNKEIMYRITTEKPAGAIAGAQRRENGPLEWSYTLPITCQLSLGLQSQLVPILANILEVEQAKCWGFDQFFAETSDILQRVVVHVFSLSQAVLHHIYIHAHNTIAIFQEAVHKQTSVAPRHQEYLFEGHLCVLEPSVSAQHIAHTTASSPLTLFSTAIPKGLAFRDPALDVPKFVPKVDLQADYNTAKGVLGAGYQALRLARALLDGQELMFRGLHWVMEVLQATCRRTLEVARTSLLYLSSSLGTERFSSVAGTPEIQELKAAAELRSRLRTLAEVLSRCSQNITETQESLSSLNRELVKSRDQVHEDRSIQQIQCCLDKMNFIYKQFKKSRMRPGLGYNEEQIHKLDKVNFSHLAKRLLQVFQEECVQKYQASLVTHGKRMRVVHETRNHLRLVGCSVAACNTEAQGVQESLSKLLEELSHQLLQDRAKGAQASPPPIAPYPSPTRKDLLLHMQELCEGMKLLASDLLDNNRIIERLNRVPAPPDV
Chain of Receptor tyrosine-protein kinase erbB-2 (Homo sapiens) (P04626 whole entry, the tested form may be a part): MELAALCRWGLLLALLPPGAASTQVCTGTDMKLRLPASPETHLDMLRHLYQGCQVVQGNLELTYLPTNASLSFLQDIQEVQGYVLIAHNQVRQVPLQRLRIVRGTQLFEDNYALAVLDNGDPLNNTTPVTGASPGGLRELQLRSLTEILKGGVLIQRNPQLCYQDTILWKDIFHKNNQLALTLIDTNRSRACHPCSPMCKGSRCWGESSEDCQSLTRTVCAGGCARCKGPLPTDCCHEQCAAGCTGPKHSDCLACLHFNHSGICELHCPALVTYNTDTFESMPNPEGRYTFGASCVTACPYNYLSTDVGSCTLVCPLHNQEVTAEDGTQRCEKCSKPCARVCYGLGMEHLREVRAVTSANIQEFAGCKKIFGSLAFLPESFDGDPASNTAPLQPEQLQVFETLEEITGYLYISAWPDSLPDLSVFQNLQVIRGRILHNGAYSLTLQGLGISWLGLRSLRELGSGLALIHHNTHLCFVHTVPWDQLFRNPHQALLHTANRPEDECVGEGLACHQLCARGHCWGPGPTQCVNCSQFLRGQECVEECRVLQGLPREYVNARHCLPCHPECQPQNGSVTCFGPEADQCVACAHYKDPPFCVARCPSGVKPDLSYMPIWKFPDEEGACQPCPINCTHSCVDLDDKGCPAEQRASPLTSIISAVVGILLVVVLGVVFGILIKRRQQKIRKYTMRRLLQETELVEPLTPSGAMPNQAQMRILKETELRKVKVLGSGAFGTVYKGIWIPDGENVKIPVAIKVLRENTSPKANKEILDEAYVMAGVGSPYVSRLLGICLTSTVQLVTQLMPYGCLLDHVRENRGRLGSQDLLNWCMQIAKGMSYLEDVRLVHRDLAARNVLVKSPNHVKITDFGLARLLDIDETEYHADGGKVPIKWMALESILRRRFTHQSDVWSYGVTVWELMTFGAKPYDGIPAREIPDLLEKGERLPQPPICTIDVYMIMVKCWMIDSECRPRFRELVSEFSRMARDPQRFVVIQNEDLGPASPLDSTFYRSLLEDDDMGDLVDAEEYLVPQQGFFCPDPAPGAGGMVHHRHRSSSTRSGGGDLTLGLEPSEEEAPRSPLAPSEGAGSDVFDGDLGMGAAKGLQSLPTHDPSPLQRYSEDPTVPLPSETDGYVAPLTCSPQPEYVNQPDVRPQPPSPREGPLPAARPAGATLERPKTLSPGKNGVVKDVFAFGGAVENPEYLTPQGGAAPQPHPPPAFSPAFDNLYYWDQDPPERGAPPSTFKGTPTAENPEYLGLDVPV
Chain of Protein kinase C eta type (Homo sapiens) (P24723 whole entry): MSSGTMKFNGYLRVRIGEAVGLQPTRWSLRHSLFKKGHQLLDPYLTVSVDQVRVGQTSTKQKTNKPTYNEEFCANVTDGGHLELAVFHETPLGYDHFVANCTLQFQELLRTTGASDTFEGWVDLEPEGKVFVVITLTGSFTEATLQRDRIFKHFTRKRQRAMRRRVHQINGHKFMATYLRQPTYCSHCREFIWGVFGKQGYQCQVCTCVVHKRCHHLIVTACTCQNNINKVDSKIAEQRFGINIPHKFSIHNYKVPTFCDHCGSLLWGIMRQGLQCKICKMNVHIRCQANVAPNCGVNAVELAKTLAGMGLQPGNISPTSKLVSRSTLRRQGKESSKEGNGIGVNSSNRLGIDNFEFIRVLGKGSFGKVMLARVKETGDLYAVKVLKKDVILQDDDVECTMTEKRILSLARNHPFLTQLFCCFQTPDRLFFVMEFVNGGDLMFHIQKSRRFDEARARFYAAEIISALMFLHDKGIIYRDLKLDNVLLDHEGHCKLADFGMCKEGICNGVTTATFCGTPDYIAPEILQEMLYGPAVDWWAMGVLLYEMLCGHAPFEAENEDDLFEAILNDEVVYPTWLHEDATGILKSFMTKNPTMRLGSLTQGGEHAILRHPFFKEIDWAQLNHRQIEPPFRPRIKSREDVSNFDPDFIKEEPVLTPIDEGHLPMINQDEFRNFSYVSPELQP
Chain of MAP kinase-interacting serine/threonine-protein kinase 2 (Homo sapiens) (Q9HBH9 whole entry, looked up): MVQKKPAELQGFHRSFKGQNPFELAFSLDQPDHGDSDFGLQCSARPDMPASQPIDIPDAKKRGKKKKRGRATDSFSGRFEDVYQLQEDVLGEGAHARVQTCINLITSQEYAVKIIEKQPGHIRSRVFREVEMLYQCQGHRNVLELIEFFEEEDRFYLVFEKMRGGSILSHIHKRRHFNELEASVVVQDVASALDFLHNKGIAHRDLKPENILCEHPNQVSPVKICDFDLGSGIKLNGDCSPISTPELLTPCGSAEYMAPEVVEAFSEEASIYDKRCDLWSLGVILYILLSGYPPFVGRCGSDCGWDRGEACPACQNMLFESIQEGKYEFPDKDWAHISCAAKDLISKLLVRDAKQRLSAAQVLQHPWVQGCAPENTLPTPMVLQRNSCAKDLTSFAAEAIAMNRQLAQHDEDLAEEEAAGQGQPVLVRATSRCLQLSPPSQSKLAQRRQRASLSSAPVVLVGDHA
Chain of Leukocyte tyrosine kinase receptor (Homo sapiens) (P29376 whole entry, the tested form may be a part): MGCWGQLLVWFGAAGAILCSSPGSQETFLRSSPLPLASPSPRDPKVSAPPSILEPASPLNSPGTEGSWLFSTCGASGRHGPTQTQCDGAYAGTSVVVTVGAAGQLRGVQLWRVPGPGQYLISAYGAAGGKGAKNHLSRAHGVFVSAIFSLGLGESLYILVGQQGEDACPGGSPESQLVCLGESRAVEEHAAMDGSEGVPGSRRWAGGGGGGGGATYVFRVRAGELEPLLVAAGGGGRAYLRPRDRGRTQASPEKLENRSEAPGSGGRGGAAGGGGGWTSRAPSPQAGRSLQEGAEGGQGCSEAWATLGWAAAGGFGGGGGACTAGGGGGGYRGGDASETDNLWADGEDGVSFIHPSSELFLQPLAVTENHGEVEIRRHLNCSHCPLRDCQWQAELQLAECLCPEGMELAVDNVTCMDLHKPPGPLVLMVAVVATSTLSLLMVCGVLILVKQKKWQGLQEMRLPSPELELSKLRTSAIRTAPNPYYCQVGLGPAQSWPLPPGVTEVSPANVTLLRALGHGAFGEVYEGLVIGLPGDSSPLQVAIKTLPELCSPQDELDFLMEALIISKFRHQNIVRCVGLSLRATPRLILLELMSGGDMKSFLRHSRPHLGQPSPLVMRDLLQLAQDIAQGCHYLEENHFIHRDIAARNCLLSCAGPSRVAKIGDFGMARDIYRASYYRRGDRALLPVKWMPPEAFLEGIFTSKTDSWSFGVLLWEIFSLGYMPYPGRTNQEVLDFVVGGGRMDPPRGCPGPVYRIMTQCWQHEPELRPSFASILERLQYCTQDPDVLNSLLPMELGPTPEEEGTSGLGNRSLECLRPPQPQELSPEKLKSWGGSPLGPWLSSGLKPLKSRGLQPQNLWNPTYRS
Chain of Testis-specific serine/threonine-protein kinase 1 (Homo sapiens) (Q9BXA7 whole entry): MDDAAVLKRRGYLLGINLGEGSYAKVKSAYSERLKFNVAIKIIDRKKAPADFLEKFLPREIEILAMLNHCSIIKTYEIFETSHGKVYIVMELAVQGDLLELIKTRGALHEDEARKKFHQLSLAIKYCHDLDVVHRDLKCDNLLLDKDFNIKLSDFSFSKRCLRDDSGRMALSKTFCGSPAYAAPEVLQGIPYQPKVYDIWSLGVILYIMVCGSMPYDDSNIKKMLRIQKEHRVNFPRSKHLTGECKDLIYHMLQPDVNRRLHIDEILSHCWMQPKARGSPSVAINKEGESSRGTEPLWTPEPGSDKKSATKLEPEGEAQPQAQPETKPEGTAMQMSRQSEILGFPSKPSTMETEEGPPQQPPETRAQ

Usually inhibition stands for the relative decrease from the control value, in per cent. In the case of `CCN1CCN(Cc2ccc(Nc3ncc(F)c(-c4cc(F)c5nc(C)n(C(C)C)c5c4)n3)nc2)CC1` [ABEMACICLIB], the inhibition in [1] was 18.3%; in experiment [2], 24.8%; in [3], 4%; in experiment [4], 21.5%; in experiment [5], 8%; in [6], 11%. The inhibition turned out to be 35% in experiment [7]; 6% in experiment [8]; 9% in [9]; 69.4% in experiment [10]; 1.5% in [11]; 10.5% in experiment [12]. Besides, the inhibition in [13] stood at 3.5%; in experiment [14], 9.3%; in experiment [15], 12%; in experiment [16] it was 9%; in experiment [17], 14%; in experiment [18], 87%. In addition, the inhibition in experiment [19] turned out to be 46%; in experiment [20], 9.5%; in experiment [21], 11.7%; in [22], 5.5%; in experiment [23], 19%.
Consider `CCN1CC2(C1)CN(c1ccc(Nc3ncc(F)c(-c4cnn5c4[C@H](C)CCCC5)n3)nc1)C2`, for which the inhibition stood at 75% in experiment [1]; 10.5% in [2]; 0% in [3]; 67.5% in [4]; 3.5% in [5]; 19% in experiment [6]. The inhibition in experiment [7] was found to be 15.5%; in experiment [8], 26.5%; in experiment [9], 8.5%; in experiment [10], 44%; in [11] it was 0%; in [12] it was 25.5%. The inhibition in [13] is 9%; in experiment [14], 10.5%; in [15], -3%; in experiment [16] it was 3.5%; in experiment [17], 6.5%; in experiment [18], 94%. The inhibition in experiment [19] turned out to be 32.5%; in experiment [20], 2%; in experiment [21] it was 5.5%; in experiment [22], 1.5%; in experiment [23] it was 81%.
